From publication PMC11547840, “The Intestinal Barrier Protective Effect of Indole Aldehyde Derivatives on Acute Toxoplasma gondii Infection” (Molecules, 2024)

What was measured:
[1] = system: IEC-6 cells; test: MTT cytotoxicity assay in IEC-6 cells; assay type: cell-based; settings: MTT; concentration required to reduce IEC-6 cell growth by 50%; 24 h treatment; read-out: IC50 in IEC-6 Cells
Description: (§1) Anti-T. gondii activity and cytotoxicity of indole derivatives in vitro were evaluated by MTT assay (Solarbio, Beijing, China) using a slightly modified version of the procedure of Shang et al.. IEC-6 cells were seeded onto the 96-well plates (2 × 10^3/well) for 24 h to obtain the full monolayer, and then the host cells were infected with T. gondii (parasite: cell = 3:1) in complete medium. After 24 h, cells were washed to remove any extra parasites and then incubated with different concentrations (20, 200, 500 and 1000 μm) of […]. […] After 24 h of treatment, MTT solution was added directly to the culture wells and then incubated for 4 h at 37 °C. The optical absorbance was measured at a wavelength of 548 nm using a microplate reader (SpectraMax M2, Molecular Devices, Sunnyvale, CA, USA). Giemsa staining was used to observe the changes in cell morphology and the proliferation of T. gondii-infected cells. IEC-6 (1 × 10^5 cells/well) was inoculated into 24-well plates containing round coverslip, and after the cells were attached to the wall, T. gondii (3 × 10^5 cells/well) was added to infect the cells for 3 h. After the culture medium was discarded, PBS was added to remove the uninvaded tachyzoites. […] After discarding the supernatant, the cells were washed with PBS and completely aspirated, and then fixed by adding 0.5 mL of methanol for 3 min. Giemsa staining solution was added and shaken slightly to make the staining uniform. Coverslips were rinsed with distilled water to replace the staining solution, and finally, the slices were sealed with neutral gum and air-dried.

[2] = system: T. gondii; test: MTT anti-T. gondii activity in T. gondii-infected IEC-6 cells; assay type: cell-based, Toxoplasma gondii; settings: MTT; concentration required to reduce T. gondii-infected IEC-6 cell growth by 50%; 24 h treatment; read-out: IC50 in T. gondii
Description: as §1

[3] = system: T. gondii; test: Giemsa staining: cell infection rate and intracellular tachyzoites in IEC-6 cells; assay type: cell-based, Toxoplasma gondii; settings: IEC-6 cells infected 3 h, drug 12 h at the IC50 value of the cells
Description: as §1

[4] = system: T. gondii; test: In vivo anti-T. gondii activity, peritoneal tachyzoite count by Trypan Blue; design: species or system Toxoplasma gondii; settings: peritoneal cavity of KM female mice, i.p. 2 × 10^3 tachyzoites; 100 mg/kg oral once a day for 6 days; Toxo 12.28 ± 0.39
Description: (§2) For the in vivo study, KM female mice were divided into groups consisting of six animals each and then intraperitoneally injected with 2 × 10^3 tachyzoites. […] On the last day, heart blood samples were collected after anesthesia to separate the serum, and after mice were sacrificed by cervical dislocation, mice were dissected to obtain organs and tissues. The tachyzoites were harvested from mice peritoneal cavities to determine the level of tachyzoite proliferation. The peritoneal fluid was collected twice; the first time, it was centrifuged at 500 rpm for 10 min, then the supernatant was centrifuged at 2500 rpm for 20 min, discarded, and the worm precipitate was collected at the bottom, and mixed with an appropriate amount of physiological saline. A total of 10 μL of T. gondii suspension was mixed with 10 μL of 4% Trypan blue staining solution in a 1.5 mL centrifuge tube.

[5] = Small intestine histology and pathology scoring of T. gondii-infected mice; assay type: in vivo; settings: 100 mg/kg oral once a day for 6 days
Description: as §2
The histology research includes apparent pathological change score, H&E staining and histopathological scores of tissue, as shown in Table 4 and Table 5. In detail, the obtained small intestine tissues were fixed in formalin solution and embedded in paraffin wax after gradual dehydration with different concentrations of ethanol. The paraffin fast was sectioned to a thickness of 5 μm, rehydrated and stained with hematoxylin and eosin, respectively, and finally permeabilized with xylene and sealed with neutral gum. A light microscope was used to observe and collect pictures, and the degree of damage to the small intestinal tissues was assessed according to Chiu’s six-grade scale.

[6] = system: small intestine of mice with T. gondii infection; test: Small intestine and serum biochemical parameters (GSH, MDA, NO, DAO) of T. gondii-infected mice; assay type: in vivo; settings: 100 mg/kg oral once a day for 6 days
Description: as §2
The GSH was measured according to the method in [58]. The intestine homogenate was mixed with half volume trichloroacetic acid (20%, w/v) and centrifuged at 4000 rpm for 10 min. Then, phosphate buffer (phosphate 0.3 mol/L, pH 7.5) and 5,5-dithio-bis-(2-nitrobenzoic acid) (0.04%, w/v) were added to the separated supernatant and mixed thoroughly. After 5 min at room temperature, the absorbance was measured at 412 nm.
MDA was measured by the standard method with minor modifications. The small intestine homogenate supernatant was mixed with thiobarbituric acid (0.5%, w/v) and heated in boiling water bath for 1 h, then cooled quickly and centrifuged at 6000 rpm for 10 min; the absorbance of pink colored supernatant was measured at 532 nm. Tetraethoxypropane replaced the intestine homogenate in the standard sample.
The Greiss method was used to determine the NO content in small intestine tissues and cells. The above small intestine tissue homogenate or IEC-6 cell supernatant was centrifuged at 4 °C and 1500 rpm for 15 min, and the absorbance was measured at 540 nm by adding equal amounts of Griess A and B reagents to the supernatant. The standard used in the NO standard curve was sodium nitrite, and the NO content in the samples was calculated by substituting the absorbance values of the samples into the regression equation of the standard curve.
The DAO evaluation experimental method of Xin Y et al. was adopted, in which mouse heart blood was taken from a 1.5 mL centrifuge tube and centrifuged at 4 °C and 3000× g for 10 min, and the upper layer of serum was taken for measurement. Another 1.5 mL tube was taken and 600 μL of phosphate buffer, 20 μL of horseradish peroxidase, 20 μL of dianisidine dihydrochloride hydrochloride, and 20 μL of 1,5-pentanediamine hydrochloride were added. After that, 100 μL of serum samples to be tested was added, mixed well and heated at 37 °C for 18 h. The absorbance was measured at 436 nm. […]. A total of 100 μL of distilled water was used in the blank tube instead of serum, and the standard used in the standard curve was diamine oxidase. The absorbance value of the experimental samples was substituted into the regression equation of the standard curve to calculate the content of DAO in the serum samples.

[7] = system: mice with T. gondii infection; test: Survival rate of mice with T. gondii infection; assay type: in vivo; settings: acute infection; Toxo group died from day seven
Description: All data were expressed as mean ± standard deviation (S.D.) in triplicate. Statistical analyses and graphs were performed using SPSS 16.0 software (SPSS Inc., Chicago, IL, USA) and GraphPad Prism 5.0 (GraphPad Software Inc., San Diego, CA, USA). The method of Kaplan and Meier was used to compare the survival rates of the studied groups. A value of p < 0.05 was considered statistically significant.

Spiramycin [Spy, reference compound]
IC50 [1]: 246 ± 5.9 µM
IC50 [2]: 219 ± 6 µM
cell infection rate ([3]; Toxo group 49.2%): 27.7%
number of intracellular tachyzoites ([3]; Toxo group 254): 173
Number of Tachyzoites [4]: 9.22 ± 1.73 ×10^6
intestinal barrier damage induced by T. gondii infection (histology, H&E) [5]: showed no abnormalities in the small intestinal tissues
MDA level in small intestine tissue [6]: effective inhibition of the MDA increase
survival of mice with T. gondii infection [7]: extended the survival time
